Test results as given in PubChem BioAssay (NCI).
Values joined by “and” are separate entries in the source; they are usually repeats but may differ in a detail not shown here. Equal values may be shown once.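 Dose response: 5 concentrations. Exposure: 48 h. Format: 96-well plates. Endpoint: linear interpolation; highest concentration if not reached. GI50: concentration for 50% inhibition of growth. TGI: total growth inhibition.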

Legend:
Test in all cases: growth of human tumour cells (NCI), 48 h
[1] = tested on: HCT-15 colon
[2] = tested on: SW-620 colon
[3] = tested on: SF-539 CNS
[4] = tested on: NCI-H522 lung
[5] = tested on: OVCAR-8 ovarian
[6] = tested on: NCI/ADR-RES ovarian
[7] = tested on: LOX IMVI melanoma
[8] = tested on: UACC-257 melanoma
[9] = tested on: CCRF-CEM leukemia
[10] = tested on: K-562 leukemia

Question: Which GI50 [1] does the source give for `O=C(/C=C/c1ccc(C(F)(F)F)cc1)Nc1ccc(C=C2c3ccccc3C(=O)c3ccccc32)cc1` here?
Answer: The GI50 was 4.18 µM.

Question: And the TGI [1]?
Answer: The TGI was > 100 µM.

Question: What about the GI50 [2] of the same molecule?
Answer: Its GI50 is 4.57 µM.

Question: What about the TGI [2] of the same molecule?
Answer: The TGI was > 100 µM.

Question: And the GI50 [3]?
Answer: The GI50 was 23.1 µM.

Question: What about the TGI [3] of the same molecule?
Answer: The TGI was 96.3 µM.

Question: What about the GI50 [4] of the same molecule?
Answer: The GI50 was 2.36 µM.

Question: What about the TGI [4] of the same molecule?
Answer: The TGI was 25.4 µM.

Question: And the GI50 [5]?
Answer: Its GI50 is 15.4 µM.

Question: What about the TGI [5] of the same molecule?
Answer: Its TGI is > 100 µM.

Question: What about the GI50 [6] of the same molecule?
Answer: Its GI50 is 2.86 µM.

Question: What about the TGI [6] of the same molecule?
Answer: Its TGI is 30.9 µM.

Question: What about the GI50 [7] of the same molecule?
Answer: The GI50 was 14.2 µM.

Question: What about the TGI [7] of the same molecule?
Answer: Its TGI is > 100 µM.

Question: And the GI50 [8]?
Answer: The GI50 was 3.87 µM.

Question: And the TGI [8]?
Answer: The TGI was > 100 µM.

Question: And the GI50 [9]?
Answer: The GI50 was 3.4 µM.

Question: What about the TGI [9] of the same molecule?
Answer: The TGI was > 100 µM.

Question: Which results are given for `CCc1ccccc1NC(=O)/C=C/c1ccccc1`?
Answer: TGI [1]: > 100 µM; TGI [2]: > 100 µM; TGI [3]: > 100 µM; TGI [4]: > 100 µM; TGI [5]: > 100 µM; TGI [7]: > 100 µM; TGI [8]: > 100 µM; TGI [10]: > 100 µM; TGI [9]: > 100 µM

Question: With `CCc1cccc(C)c1N1C(=O)C(=O)C(c2nc3ccccc3o2)C(=O)C1=O` as the molecule, how does the TGI [1] read?
Answer: The TGI was > 100 µM.

Question: What about the TGI [2] of the same molecule?
Answer: Its TGI is > 100 µM.

Question: What about the TGI [3] of the same molecule?
Answer: The TGI was > 100 µM.

Question: And the TGI [4]?
Answer: Its TGI is > 100 µM.

Question: And the TGI [5]?
Answer: The TGI was > 100 µM.

Question: What about the TGI [8] of the same molecule?
Answer: Its TGI is > 100 µM.

Question: What about the TGI [10] of the same molecule?
Answer: Its TGI is > 100 µM.

Question: And the TGI [9]?
Answer: Its TGI is > 100 µM.

Question: Which results are given for `O=c1c2cc(-c3ccccc3)sc2ncn1Cc1ccc(Cl)c(Cl)c1`?
Answer: GI50 [1]: 0.845 µM; TGI [1]: > 100 µM; GI50 [2]: > 100 µM; TGI [2]: > 100 µM; GI50 [3]: 14 µM; TGI [3]: 43 µM; GI50 [4]: 6.43 µM; TGI [4]: 53.1 µM; GI50 [5]: 18.6 µM; TGI [5]: > 100 µM; GI50 [6]: 19.5 µM; TGI [6]: 59 µM; GI50 [7]: 51.9 µM; TGI [7]: > 100 µM; GI50 [8]: 62.2 µM; TGI [8]: > 100 µM; GI50 [10]: 20.7 µM; TGI [10]: > 100 µM

Question: With `Cc1cccc2c1c1ccc3c(c1n2C)C(=O)C=CC3=O` as the molecule, how does the TGI [1] read?
Answer: The TGI was 10.5 µM.

Question: What about the TGI [2] of the same molecule?
Answer: The TGI was 4.33 µM.

Question: What about the TGI [3] of the same molecule?
Answer: Its TGI is 15 µM.

Question: And the TGI [4]?
Answer: The TGI was 2.97 µM.

Question: What about the TGI [5] of the same molecule?
Answer: Its TGI is 32.1 µM.

Question: What about the TGI [7] of the same molecule?
Answer: Its TGI is 6.58 µM.

Question: What about the TGI [8] of the same molecule?
Answer: Its TGI is 25 µM.

Question: What about the TGI [10] of the same molecule?
Answer: The TGI was 6.03 µM.

Question: What about the TGI [9] of the same molecule?
Answer: Its TGI is 3.25 µM.

Question: Which TGI [1] does the source give for `CCOC(=O)CCC1(C(=O)OCC)CCCC1=O` (stereo unspecified) here?
Answer: The TGI was > 100 µM.

Question: What about the TGI [3] of the same molecule?
Answer: The TGI was > 100 µM.

Question: What about the TGI [4] of the same molecule?
Answer: The TGI was > 100 µM.

Question: And the TGI [5]?
Answer: The TGI was > 100 µM.

Question: What about the TGI [7] of the same molecule?
Answer: The TGI was > 100 µM.

Question: And the TGI [8]?
Answer: The TGI was > 100 µM.

Question: And the TGI [10]?
Answer: Its TGI is > 100 µM.

Question: And the TGI [9]?
Answer: Its TGI is > 100 µM.

Question: How did the TGI [1] turn out when `Cc1cc(C)nc(/C(=N\NC(N)=O)C(=O)Nc2nc3ccc(C)cc3s2)c1` was run?
Answer: The TGI was > 100 µM.

Question: And the TGI [2]?
Answer: Its TGI is > 100 µM.

Question: And the TGI [3]?
Answer: Its TGI is > 100 µM.

Question: And the TGI [4]?
Answer: Its TGI is > 100 µM.

Question: And the TGI [5]?
Answer: Its TGI is > 100 µM.

Question: What about the TGI [7] of the same molecule?
Answer: The TGI was > 70.5 µM.

Question: And the TGI [8]?
Answer: The TGI was > 100 µM.

Question: What about the TGI [10] of the same molecule?
Answer: Its TGI is > 100 µM.

Question: What about the TGI [9] of the same molecule?
Answer: The TGI was > 77.8 µM.

Question: Which GI50 [1] does the source give for `CC1=C2C(=CC(C)(C)[C@@H]2O)C(=O)[C@](C)(O)C12CC2` here?
Answer: The GI50 was 0.00514 µM.

Question: What about the GI50 [2] of the same molecule?
Answer: The GI50 was 0.00597 µM and 0.0168 µM.

Question: What about the TGI [2] of the same molecule?
Answer: Its TGI is 0.0976 µM and 0.131 µM.

Question: And the TGI [3]?
Answer: Its TGI is 0.0548 µM and 0.038 µM.

Question: What about the GI50 [4] of the same molecule?
Answer: The GI50 was 0.0137 µM.

Question: And the TGI [4]?
Answer: The TGI was 0.0484 µM and < 0.0232 µM.

Question: What about the GI50 [5] of the same molecule?
Answer: The GI50 was 0.0294 µM.

Question: What about the TGI [5] of the same molecule?
Answer: Its TGI is 0.182 µM and 1.29 µM.

Question: What about the GI50 [6] of the same molecule?
Answer: Its GI50 is 0.0223 µM.

Question: What about the TGI [6] of the same molecule?
Answer: The TGI was 0.104 µM and 0.0155 µM.

Question: What about the GI50 [7] of the same molecule?
Answer: Its GI50 is 0.0125 µM.

Question: What about the TGI [7] of the same molecule?
Answer: The TGI was 0.0529 µM and 0.0384 µM.

Question: And the TGI [8]?
Answer: Its TGI is 0.328 µM and 0.259 µM.

Question: And the GI50 [10]?
Answer: Its GI50 is 0.0145 µM.

Question: And the TGI [10]?
Answer: Its TGI is 0.369 µM and 0.596 µM.

Question: How did the TGI [1] turn out when `COC(=O)CCC12CCC(=O)C1[C@@H](C(=O)OC)C[C@H]2C(=O)OC` (stereo partly specified) was run?
Answer: The TGI was > 100 µM.

Question: What about the TGI [2] of the same molecule?
Answer: The TGI was > 100 µM.

Question: And the TGI [3]?
Answer: The TGI was > 100 µM.

Question: And the TGI [4]?
Answer: Its TGI is > 100 µM.

Question: What about the TGI [5] of the same molecule?
Answer: The TGI was > 100 µM.

Question: And the TGI [7]?
Answer: The TGI was > 100 µM.

Question: What about the TGI [8] of the same molecule?
Answer: Its TGI is > 100 µM.

Question: What about the TGI [10] of the same molecule?
Answer: Its TGI is > 100 µM.

Question: What about the TGI [9] of the same molecule?
Answer: The TGI was > 100 µM.

Question: With `Cc1ccc(Oc2ccccc2N)cc1` as the molecule, how does the TGI [1] read?
Answer: Its TGI is > 100 µM.

Question: What about the TGI [2] of the same molecule?
Answer: The TGI was > 100 µM.

Question: And the TGI [3]?
Answer: Its TGI is 40.1 µM.

Question: What about the TGI [5] of the same molecule?
Answer: Its TGI is > 100 µM.

Question: What about the TGI [7] of the same molecule?
Answer: The TGI was > 100 µM.

Question: And the TGI [8]?
Answer: Its TGI is > 100 µM.

Question: What about the TGI [10] of the same molecule?
Answer: Its TGI is > 100 µM.

Question: And the TGI [9]?
Answer: Its TGI is > 100 µM.
